Test results taken from publication PMC7305236, “The atypical chemokine receptor ACKR3/CXCR7 is a broad-spectrum scavenger for opioid peptides” (Nature Communications, 2020).
Where two headings read alike, the source gives them in different places.

Assays:
Assay in all cases: Figure S2a opioid peptide screen on chemokine receptors
Set-up in all cases: dose or concentration left out as unconfirmed
CCR6 = target: T1, CCR6 (Homo sapiens, UniProt P51684); assay type: cell-based
T1 construct: expressed in transfected cells
T1 sequence (P51684 1-374): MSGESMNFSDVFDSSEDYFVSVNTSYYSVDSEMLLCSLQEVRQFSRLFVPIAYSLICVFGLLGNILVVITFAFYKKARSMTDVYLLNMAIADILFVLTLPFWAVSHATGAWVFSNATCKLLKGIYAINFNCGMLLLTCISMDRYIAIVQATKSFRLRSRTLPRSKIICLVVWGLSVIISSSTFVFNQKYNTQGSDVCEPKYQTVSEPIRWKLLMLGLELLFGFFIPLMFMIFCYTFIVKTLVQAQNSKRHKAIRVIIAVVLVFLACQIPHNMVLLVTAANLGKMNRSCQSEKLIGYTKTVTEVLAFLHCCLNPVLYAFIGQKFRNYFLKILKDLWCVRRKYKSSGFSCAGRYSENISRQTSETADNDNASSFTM

CCR8 = CCR8 (Homo sapiens, UniProt P51685); settings: read-out: CCR8 activity, ctrl+ = 100, Figure S2a
CCR8, sequence (P51685 whole entry): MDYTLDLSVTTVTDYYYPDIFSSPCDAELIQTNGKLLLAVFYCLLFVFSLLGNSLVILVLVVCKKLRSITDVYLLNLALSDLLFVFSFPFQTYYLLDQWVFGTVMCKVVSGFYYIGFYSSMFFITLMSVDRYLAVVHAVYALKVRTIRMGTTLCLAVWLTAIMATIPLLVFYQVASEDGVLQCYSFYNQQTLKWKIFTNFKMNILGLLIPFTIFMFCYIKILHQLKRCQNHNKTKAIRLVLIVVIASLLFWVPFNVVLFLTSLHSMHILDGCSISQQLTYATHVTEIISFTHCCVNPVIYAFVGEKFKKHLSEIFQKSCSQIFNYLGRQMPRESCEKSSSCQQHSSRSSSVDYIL

CCR5 = target: T2, CCR5 (Homo sapiens, UniProt P51681); assay type: cell-based
T2 construct: expressed in transfected cells
T2 sequence (P51681 whole entry): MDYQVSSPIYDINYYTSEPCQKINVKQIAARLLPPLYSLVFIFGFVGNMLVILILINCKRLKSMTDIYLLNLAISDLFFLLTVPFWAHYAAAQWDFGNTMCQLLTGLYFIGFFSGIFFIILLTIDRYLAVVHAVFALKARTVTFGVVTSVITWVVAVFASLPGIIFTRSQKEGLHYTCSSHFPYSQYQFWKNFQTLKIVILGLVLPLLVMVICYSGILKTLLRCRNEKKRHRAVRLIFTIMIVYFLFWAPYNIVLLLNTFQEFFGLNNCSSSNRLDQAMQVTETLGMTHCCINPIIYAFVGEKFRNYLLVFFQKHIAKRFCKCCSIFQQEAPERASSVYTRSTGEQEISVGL

CCR1 = target: T3, CCR1 (Homo sapiens, UniProt P32246); assay type: cell-based
T3 construct: expressed in transfected cells
T3 sequence (P32246 1-355): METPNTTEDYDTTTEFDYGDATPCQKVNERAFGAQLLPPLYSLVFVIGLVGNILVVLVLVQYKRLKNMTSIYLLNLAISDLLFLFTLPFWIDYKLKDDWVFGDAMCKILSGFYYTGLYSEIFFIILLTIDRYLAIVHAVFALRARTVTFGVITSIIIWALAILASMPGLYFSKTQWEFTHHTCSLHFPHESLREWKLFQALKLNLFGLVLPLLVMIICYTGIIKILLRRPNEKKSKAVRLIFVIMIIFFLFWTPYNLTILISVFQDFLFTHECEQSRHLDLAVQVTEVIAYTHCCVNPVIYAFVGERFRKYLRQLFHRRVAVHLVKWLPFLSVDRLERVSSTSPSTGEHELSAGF

ACKR2 = target: T4, ACKR2 (Homo sapiens, UniProt O00590); assay type: cell-based
T4 construct: expressed in transfected cells; host or cells: U87 cells (human glioblastoma)
T4 sequence (O00590 1-384): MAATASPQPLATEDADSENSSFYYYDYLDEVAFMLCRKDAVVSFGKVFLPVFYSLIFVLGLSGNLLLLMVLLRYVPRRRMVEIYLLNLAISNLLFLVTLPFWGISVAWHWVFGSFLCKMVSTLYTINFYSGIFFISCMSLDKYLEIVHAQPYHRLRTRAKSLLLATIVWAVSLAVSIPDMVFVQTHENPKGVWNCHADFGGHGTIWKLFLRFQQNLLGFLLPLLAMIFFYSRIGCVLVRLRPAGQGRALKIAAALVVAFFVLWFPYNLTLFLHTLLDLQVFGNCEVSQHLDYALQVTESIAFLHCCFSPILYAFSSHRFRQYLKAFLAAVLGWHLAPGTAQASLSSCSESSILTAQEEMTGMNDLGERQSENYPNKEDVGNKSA

CXCR3B = target: T5, CXCR3B (Homo sapiens, UniProt P49682); assay type: cell-based
T5 construct: expressed in transfected cells; host or cells: U87 cells
T5 sequence (P49682 1-415 isoform P49682-2): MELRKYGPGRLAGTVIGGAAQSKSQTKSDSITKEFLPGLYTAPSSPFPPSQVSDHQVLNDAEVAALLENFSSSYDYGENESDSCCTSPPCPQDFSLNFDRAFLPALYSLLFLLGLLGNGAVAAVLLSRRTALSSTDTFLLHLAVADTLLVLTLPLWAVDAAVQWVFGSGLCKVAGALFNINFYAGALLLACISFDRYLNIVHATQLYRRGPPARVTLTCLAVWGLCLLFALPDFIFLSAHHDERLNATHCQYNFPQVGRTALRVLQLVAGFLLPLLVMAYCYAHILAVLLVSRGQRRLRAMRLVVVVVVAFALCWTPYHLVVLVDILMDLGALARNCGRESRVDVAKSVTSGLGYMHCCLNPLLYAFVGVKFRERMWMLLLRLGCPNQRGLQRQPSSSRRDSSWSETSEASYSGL

CXCR3A = target: T6, CXCR3A (Homo sapiens, UniProt P49682); assay type: cell-based
T6 construct: expressed in transfected cells; host or cells: U87 cells
T6 sequence (P49682 1-368): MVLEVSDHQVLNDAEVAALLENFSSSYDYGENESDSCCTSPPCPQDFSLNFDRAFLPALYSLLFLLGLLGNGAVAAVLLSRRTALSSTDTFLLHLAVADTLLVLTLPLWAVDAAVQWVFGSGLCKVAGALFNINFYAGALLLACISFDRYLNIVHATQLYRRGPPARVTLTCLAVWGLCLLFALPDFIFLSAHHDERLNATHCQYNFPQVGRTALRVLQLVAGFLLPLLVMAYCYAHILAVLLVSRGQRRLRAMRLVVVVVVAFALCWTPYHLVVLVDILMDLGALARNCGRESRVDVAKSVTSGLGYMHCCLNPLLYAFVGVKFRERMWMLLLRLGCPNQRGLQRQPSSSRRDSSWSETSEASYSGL

[1] = replicate 1, read-out: CCR6 activity, ctrl+ = 100
[2] = replicate 2, read-out: CCR6 activity, ctrl+ = 100
[3] = replicate 3, read-out: CCR6 activity, ctrl+ = 100
[4] = replicate 1, read-out: CCR5 activity, ctrl+ = 100
[5] = replicate 2, read-out: CCR5 activity, ctrl+ = 100
[6] = replicate 3, read-out: CCR5 activity, ctrl+ = 100
[7] = replicate 1, read-out: CCR1 activity, ctrl+ = 100
[8] = replicate 2, read-out: CCR1 activity, ctrl+ = 100
[9] = replicate 3, read-out: CCR1 activity, ctrl+ = 100
[10] = replicate 1, read-out: ACKR2 activity, ctrl+ = 100
[11] = replicate 2, read-out: ACKR2 activity, ctrl+ = 100
[12] = replicate 3, read-out: ACKR2 activity, ctrl+ = 100
[13] = replicate 1, read-out: CXCR3B activity, ctrl+ = 100
[14] = replicate 2, read-out: CXCR3B activity, ctrl+ = 100
[15] = replicate 3, read-out: CXCR3B activity, ctrl+ = 100
[16] = replicate 1, read-out: CXCR3A activity, ctrl+ = 100
[17] = replicate 2, read-out: CXCR3A activity, ctrl+ = 100
[18] = replicate 3, read-out: CXCR3A activity, ctrl+ = 100

| Structure (SMILES) | activation (CCR6; [1]) [%] | activation (CCR6; [2]) [%] | activation (CCR6; [3]) [%] | activation (CCR8; replicate 1) [%] | activation (CCR8; replicate 2) [%] | activation (CCR8; replicate 3) [%] | activation (CCR5; [4]) [%] | activation (CCR5; [5]) [%] | activation (CCR5; [6]) [%] | activation (CCR1; [7]) [%] | activation (CCR1; [8]) [%] | activation (CCR1; [9]) [%] | activation (ACKR2; [10]) [%] | activation (ACKR2; [11]) [%] | activation (ACKR2; [12]) [%] | activation (CXCR3B; [13]) [%] | activation (CXCR3B; [14]) [%] | activation (CXCR3B; [15]) [%] | activation (CXCR3A; [16]) [%] | activation (CXCR3A; [17]) [%] | other results |
| --- | --- | --- | --- | --- | --- | --- | --- | --- | --- | --- | --- | --- | --- | --- | --- | --- | --- | --- | --- | --- | --- |
| CC[C@H](C)[C@H](NC(=O)[C@H](CCCNC(=N)N)NC(=O)[C@H](CCCNC(=N)N)NC(=O)[C@H](CC(C)C)NC(=O)[C@H](Cc1ccccc1)NC(=O)CNC(=O)CNC(=O)[C@@H](N)Cc1ccc(O)cc1)C(=O)N[C@@H](CCCNC(=N)N)C(=O)N1CCC[C@H]1C(=O)N[C@@H](CCCCN)C(=O)N[C@@H](CC(C)C)C(=O)N[C@@H](CCCCN)C(=O)N[C@@H](Cc1c[nH]c2ccccc12)C(=O)N[C@@H](CC(=O)O)C(=O)N[C@@H](CC(N)=O)C(=O)N[C@@H](CCC(N)=O)C(=O)O [Dynorphin A] | -2.27 | -1.32 | -4.07 | -0.0612 | -35.8 | -0.797 | 2.19 | -1.33 | 2.35 | -16.7 | 4.28 | 6.56 | 15.1 | -26 | 2.73 | -2.77 | 1.06 | -1.99 | -4.75 | -3.36 | activation (CXCR3A; [18]): 7.92% |
| NC(=O)[C@H](Cc1ccccc1)NC(=O)[C@H](Cc1c[nH]c2ccccc12)NC(=O)[C@@H]1CCCN1C(=O)[C@@H](N)Cc1ccc(O)cc1 [Endomorphin-1] | 0.653 | 2.69 | – | -25.5 | 19.4 | – | 0.726 | -0.866 | – | 3.57 | -19.2 | – | -6 | 11.5 | – | -0.0115 | 13 | – | 3.34 | -3.63 | – |
| CC(C)C[C@H](NC(=O)[C@H](Cc1ccccc1)NC(=O)CNC(=O)CNC(=O)[C@@H](N)Cc1ccc(O)cc1)C(=O)N[C@@H](CCCN=C(N)N)C(=O)N[C@@H](CCCN=C(N)N)C(=O)N[C@@H](CCC(N)=O)C(=O)N[C@@H](Cc1ccccc1)C(=O)N[C@@H](CCCCN)C(=O)N[C@H](C(=O)N[C@H](C(=O)N[C@H](C(=O)O)[C@@H](C)O)C(C)C)C(C)C [Dynorphin B] | -0.194 | -0.375 | -3.12 | 2.83 | -25.3 | 18.8 | 0.97 | 0.0962 | 1.82 | -23.7 | -13.7 | 27.5 | -36.9 | -27.9 | -3.73 | -3.84 | -0.0101 | 0.918 | -2.8 | -4.87 | activation (CXCR3A; [18]): -1.97% |
| CC[C@H](C)[C@H](NC(=O)[C@H](CCCNC(=N)N)NC(=O)[C@H](CCCNC(=N)N)NC(=O)[C@H](CC(C)C)NC(=O)[C@H](Cc1ccccc1)NC(=O)CNC(=O)CN)C(=O)N[C@@H](CCCNC(=N)N)C(=O)N1CCC[C@H]1C(=O)N[C@@H](CCCCN)C(=O)N[C@@H](CC(C)C)C(=O)N[C@@H](CCCCN)C(=O)N[C@@H](Cc1c[nH]c2ccccc12)C(=O)N[C@@H](CC(=O)O)C(=O)N[C@@H](CC(N)=O)C(=O)N[C@@H](CCC(N)=O)C(=O)O [Dynorphin 2-17] | -0.438 | -1.06 | – | -6.57 | 0.623 | – | 1.32 | -2.11 | – | -21 | -15.3 | – | 12.5 | -37.2 | – | -1.19 | -3.44 | – | -4.16 | -10.2 | – |
